# Laboratory results published in patent US20260001847A1, “HERBICIDAL QUINOLONE DERIVATIVES” (SYNGENTA CROP PROTECTION AG, priority 2022, published 2026).
# Marks after values point to notes of the source that are not given here.
# Assays:
# Format in all cases: in vivo
# [1] = tested on: Amaranthus retoflexus (AMARE); experiment: Pre-emergence Test; details: evaluated after 13 days
# [2] = tested on: Echinochloa crus-galli (ECHCG); experiment: Pre-emergence Test; details: 1000 g/ha, evaluated after 13 days
# [3] = tested on: Ipomoea hederacea (IPOHE); experiment: Pre-emergence Test; details: evaluated after 13 days
# [4] = tested on: Amaranthus retoflexus (AMARE); experiment: Post-emergence Test; details: evaluated after 13 days
# Description: (§1) Seeds of a variety of test species are sown in standard soil in pots (Abutilon theophrasti (ABUTH), Ipomoea hederacea (IPOHE). Setaria faberi (SETFA), Echinochloa crus-galli (ECHCG), Zea mays (ZEAMX), Amaranthus retoflexus (AMARE), Solanum nigrum (SOLNI), Lolium perenne (LOLPE), Amaranthus palmeri (AMAPA)). After 8 days cultivation under controlled conditions in a glasshouse (at 24° C./16° C., day/night-; 14 hours light; 65% humidity), the plants are sprayed with an aqueous spray solution derived from the formulation of the technical active ingredient in acetone/water (50:50) solution containing 0.5% Tween 20 (polyoxyethylene sorbitan monolaurate, CAS RN 9005-64-5). Compounds are applied at 1000 g/ha unless otherwise stated. The test plants are then grown in a glasshouse under controlled conditions in a glasshouse (at 24° C./16° C., day/night; 14 hours light; 65% humidity) and watered twice daily. After 13 days the test is evaluated for the percentage damage caused to the plant. The biological activities are shown in the following table on a five-point scale (5=81-100%; 4=61-80%; 3=41-60%; 2=21-40%; 1=0-20%; -=not tested).
# [5] = tested on: Amaranthus palmeri (AMAPA); experiment: Post-emergence Test; details: evaluated after 13 days
# Description: as §1
# [6] = tested on: Echinochloa crus-galli (ECHCG); experiment: Post-emergence Test; details: evaluated after 13 days
# Description: as §1
# Setaria faberi (SETFA) [7] = experiment: Post-emergence Test; details: evaluated after 13 days
# Description: as §1
# Zea mays (ZEAMX) [8] = experiment: Post-emergence Test; details: evaluated after 13 days
# Description: as §1
# [9] = tested on: Ipomoea hederacea (IPOHE); experiment: Post-emergence Test; details: evaluated after 13 days
# Description: as §1
# Setaria faberi (SETFA) [10] = experiment: Pre-emergence Test; details: 1000 g/ha, evaluated after 13 days
# Zea mays (ZEAMX) [11] = experiment: Pre-emergence Test; details: 1000 g/ha, evaluated after 13 days
# [12] = tested on: Amaranthus palmeri (AMAPA); experiment: Pre-emergence Test; details: evaluated after 13 days
Structure (SMILES),"percentage damage caused to the plant, ECHCG [2]","percentage damage caused to the plant, IPOHE ([3]; 1000 g/ha)","percentage damage caused to the plant, AMARE ([4]; 1000 g/ha)","percentage damage caused to the plant, AMAPA ([5]; 1000 g/ha)","percentage damage caused to the plant, ECHCG ([6]; 1000 g/ha)","percentage damage caused to the plant, SETFA (Setaria faberi (SETFA) [7]; 1000 g/ha)","percentage damage caused to the plant, ZEAMX (Zea mays (ZEAMX) [8]; 1000 g/ha)","percentage damage caused to the plant, IPOHE ([9]; 1000 g/ha)","percentage damage caused to the plant, SETFA (Setaria faberi (SETFA) [10])","percentage damage caused to the plant, ZEAMX (Zea mays (ZEAMX) [11])",further results
"CCn1c(-c2ccc(Cl)c(Cl)c2)c(C(=O)O)c(=O)c2c(Br)cccc21 [Compound 4, 5-bromo-2-(3,4-dichlorophenyl)-1-ethyl-4-oxo-quinoline-3-carboxylic acid]",5 (5=81-100%),1 (1=0-20%),0,0,1 (1=0-20%),1 (1=0-20%),1 (1=0-20%),1 (1=0-20%),5 (5=81-100%),3 (3=41-60%),"percentage damage caused to the plant, AMARE ([1]; 1000 g/ha): 1 (1=0-20%); percentage damage caused to the plant, AMAPA ([12]; 1000 g/ha): 2 (2=21-40%)"
"CCn1c(-c2ccc(Cl)c(Cl)c2)c(C(=O)O)c(=O)c2cc(Cl)ccc21 [Compound 5, 6-chloro-2-(3,4-dichlorophenyl)-1-ethyl-4-oxo-quinoline-3-carboxylic acid]",0,0,1 (1=0-20%),1 (1=0-20%),–,4 (4=61-80%),2 (2=21-40%),1 (1=0-20%),2 (2=21-40%),1 (1=0-20%),–
"CCn1c(-c2ccc(Cl)c(Cl)c2)c(C(=O)O)c(=O)c2cc(F)ccc21 [Compound 6, 2-(3,4-dichlorophenyl)-1-ethyl-6-fluoro-4-oxo-quinoline-3-carboxylic acid]",5 (5=81-100%),0,1 (1=0-20%),3 (3=41-60%),4 (4=61-80%),4 (4=61-80%),4 (4=61-80%),3 (3=41-60%),5 (5=81-100%),0,–
"CCn1c(-c2ccc(Cl)c(Cl)c2)c(C(=O)O)c(=O)c2cc(C#N)ccc21 [Compound 7, 6-cyano-2-(3,4-dichlorophenyl)-1-ethyl-4-oxo-quinoline-3-carboxylic acid]",5 (5=81-100%),1 (1=0-20%),3 (3=41-60%),4 (4=61-80%),–,4 (4=61-80%),3 (3=41-60%),2 (2=21-40%),5 (5=81-100%),3 (3=41-60%),–
"CCn1c(-c2ccc(Cl)c(Cl)c2)c(C(=O)O)c(=O)c2cc(-c3ccc(F)cc3)ccc21 [Compound 9, 2-(3,4-dichlorophenyl)-1-ethyl-6-(4-fluorophenyl)-4-oxo-quinoline-3-carboxylic acid]",3 (3=41-60%),1 (1=0-20%),2 (2=21-40%),2 (2=21-40%),0,0,0,2 (2=21-40%),4 (4=61-80%),1 (1=0-20%),–
"CCn1c(-c2ccc(Cl)c(Cl)c2)c(C(=O)O)c(=O)c2cc(C(N)=O)ccc21 [Compound 10, 6-carbamoyl-2-(3,4-dichlorophenyl)-1-ethyl-4-oxo-quinoline-3-carboxylic acid]",0,0,2 (2=21-40%),4 (4=61-80%),–,4 (4=61-80%),2 (2=21-40%),1 (1=0-20%),0,2 (2=21-40%),–
"CCn1c(-c2ccc(Cl)c(Cl)c2)c(C(=O)O)c(=O)c2ccc(C(F)(F)F)cc21 [Compound 13, 2-(3,4-dichlorophenyl)-1-ethyl-4-oxo-7-(trifluoromethyl)quinoline-3-carboxylic acid]",0,0,2 (2=21-40%),1 (1=0-20%),2 (2=21-40%),1 (1=0-20%),1 (1=0-20%),0,0,0,–
"CCn1c(-c2ccc(Cl)c(Cl)c2)c(C(=O)O)c(=O)c2cc(C(F)(F)F)ccc21 [Compound 16, 2-(3,4-dichlorophenyl)-1-ethyl-4-oxo-6-(trifluoromethyl)quinoline-3-carboxylic acid]",5 (5=81-100%),1 (1=0-20%),0,0,4 (4=61-80%),4 (4=61-80%),3 (3=41-60%),2 (2=21-40%),5 (5=81-100%),1 (1=0-20%),"percentage damage caused to the plant, AMARE ([1]; 1000 g/ha): 1 (1=0-20%)"
"CCn1c(-c2ccc(Cl)c(Cl)c2)c(C(=O)O)c(=O)c2c(C#N)cccc21 [Compound 17, 5-cyano-2-(3,4-dichlorophenyl)-1-ethyl-4-oxo-quinoline-3-carboxylic acid]",–,–,–,–,–,–,–,–,–,–,"percentage damage caused to the plant, AMARE ([1]; 250 g/ha): 1* (1=0-20%); percentage damage caused to the plant, IPOHE ([3]; 250 g/ha): 1* (1=0-20%); percentage damage caused to the plant, AMARE ([4]; 250 g/ha): 2* (2=21-40%); percentage damage caused to the plant, AMAPA ([5]; 250 g/ha): 2* (2=21-40%); percentage damage caused to the plant, ECHCG ([6]; 250 g/ha): 1* (1=0-20%); percentage damage caused to the plant, SETFA (Setaria faberi (SETFA) [7]; 250 g/ha): 1* (1=0-20%); percentage damage caused to the plant, ZEAMX (Zea mays (ZEAMX) [8]; 250 g/ha): 0*; percentage damage caused to the plant, IPOHE ([9]; 250 g/ha): 2* (2=21-40%); percentage damage caused to the plant, AMAPA ([12]; 250 g/ha): 1* (1=0-20%)"
"CC(=O)c1cccc2c1c(=O)c(C(=O)O)cn2-c1ccc(OC(F)(F)F)cc1 [Compound 19, 5-acetyl-4-oxo-1-[4-(trifluoromethoxy)phenyl]quinoline-3-carboxylic acid]",3 (3=41-60%),0,0,2 (2=21-40%),4 (4=61-80%),3 (3=41-60%),3 (3=41-60%),1 (1=0-20%),3 (3=41-60%),0,–
